Results from article PMC7071731 (Journal of molecular biology, 2019).

Columns and labels:
[1] = molecular target: AcrB (Escherichia coli, UniProt P31224); assay: ITC; format: binding
[2] = molecular target: AcrB (Escherichia coli, UniProt P31224, I27A); assay: ITC; format: binding
[3] = molecular target: AcrB (Escherichia coli, UniProt P31224, V340A); assay: ITC; format: binding
[4] = molecular target: AcrB (Escherichia coli, UniProt P31224, N298A); assay: ITC; format: binding
[5] = molecular target: the molecule itself; assay: crystal structure

Chain of AcrB (Escherichia coli, UniProt P31224) (P31224 whole entry): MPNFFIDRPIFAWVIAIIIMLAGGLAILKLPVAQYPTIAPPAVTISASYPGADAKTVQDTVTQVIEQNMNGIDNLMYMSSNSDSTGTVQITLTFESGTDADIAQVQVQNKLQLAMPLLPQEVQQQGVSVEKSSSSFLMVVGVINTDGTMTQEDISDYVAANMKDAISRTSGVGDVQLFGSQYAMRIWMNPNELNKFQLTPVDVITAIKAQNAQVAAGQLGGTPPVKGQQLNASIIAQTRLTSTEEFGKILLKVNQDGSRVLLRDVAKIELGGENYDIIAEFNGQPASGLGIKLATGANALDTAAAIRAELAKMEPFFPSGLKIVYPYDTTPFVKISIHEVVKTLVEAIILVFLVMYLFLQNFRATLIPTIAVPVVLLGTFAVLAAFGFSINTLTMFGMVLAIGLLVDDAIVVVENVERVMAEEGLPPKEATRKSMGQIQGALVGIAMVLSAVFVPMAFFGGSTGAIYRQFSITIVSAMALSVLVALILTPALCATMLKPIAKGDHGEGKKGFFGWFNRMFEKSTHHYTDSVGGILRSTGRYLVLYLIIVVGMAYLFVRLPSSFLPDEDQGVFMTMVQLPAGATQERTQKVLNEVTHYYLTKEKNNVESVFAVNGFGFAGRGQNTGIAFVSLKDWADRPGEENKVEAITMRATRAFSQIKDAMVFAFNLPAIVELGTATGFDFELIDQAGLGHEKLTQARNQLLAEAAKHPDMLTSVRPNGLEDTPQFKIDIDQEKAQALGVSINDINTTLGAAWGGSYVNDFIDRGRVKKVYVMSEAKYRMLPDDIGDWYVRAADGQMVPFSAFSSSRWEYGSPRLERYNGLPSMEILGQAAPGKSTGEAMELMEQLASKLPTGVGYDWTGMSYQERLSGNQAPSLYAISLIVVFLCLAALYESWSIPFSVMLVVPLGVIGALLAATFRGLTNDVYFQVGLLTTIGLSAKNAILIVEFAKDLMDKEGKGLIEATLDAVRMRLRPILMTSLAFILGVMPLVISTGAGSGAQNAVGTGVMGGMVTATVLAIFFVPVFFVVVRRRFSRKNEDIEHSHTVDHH

Molecule	Kd [1] [µM]	Kd [2] [µM]	Kd [3] [µM]	Kd [4] [mM]	binding result [5]
CC(=O)O[C@H]1C[C@@]2(C)[C@@H](C[C@@H](O)[C@H]3[C@@]4(C)CC[C@@H](O)[C@@H](C)[C@@H]4CC[C@@]32C)/C1=C(\CCC=C(C)C)C(=O)O [FUA, fusidic acid]	528 ± 8.6	405 ± 6.6	826.5 ± 4.8	1.12 ± 0.0182	
AcrB-N298A (natural protein) MPNFFIDRPIFAWVIAIIIMLAGGLAILKLPVAQYPTIAPPAVTISASYPGADAKTVQDTVTQVIEQNMNGIDNLMYMSSNSDSTGTVQITLTFESGTDADIAQVQVQNKLQLAMPLLPQEVQQQGVSVEKSSSSFLMVVGVINTDGTMTQEDISDYVAANMKDAISRTSGVGDVQLFGSQYAMRIWMNPNELNKFQLTPVDVITAIKAQNAQVAAGQLGGTPPVKGQQLNASIIAQTRLTSTEEFGKILLKVNQDGSRVLLRDVAKIELGGENYDIIAEFNGQPASGLGIKLATGAAALDTAAAIRAELAKMEPFFPSGLKIVYPYDTTPFVKISIHEVVKTLVEAIILVFLVMYLFLQNFRATLIPTIAVPVVLLGTFAVLAAFGFSINTLTMFGMVLAIGLLVDDAIVVVENVERVMAEEGLPPKEATRKSMGQIQGALVGIAMVLSAVFVPMAFFGGSTGAIYRQFSITIVSAMALSVLVALILTPALCATMLKPIAKGDHGEGKKGFFGWFNRMFEKSTHHYTDSVGGILRSTGRYLVLYLIIVVGMAYLFVRLPSSFLPDEDQGVFMTMVQLPAGATQERTQKVLNEVTHYYLTKEKNNVESVFAVNGFGFAGRGQNTGIAFVSLKDWADRPGEENKVEAITMRATRAFSQIKDAMVFAFNLPAIVELGTATGFDFELIDQAGLGHEKLTQARNQLLAEAAKHPDMLTSVRPNGLEDTPQFKIDIDQEKAQALGVSINDINTTLGAAWGGSYVNDFIDRGRVKKVYVMSEAKYRMLPDDIGDWYVRAADGQMVPFSAFSSSRWEYGSPRLERYNGLPSMEILGQAAPGKSTGEAMELMEQLASKLPTGVGYDWTGMSYQERLSGNQAPSLYAISLIVVFLCLAALYESWSIPFSVMLVVPLGVIGALLAATFRGLTNDVYFQVGLLTTIGLSAKNAILIVEFAKDLMDKEGKGLIEATLDAVRMRLRPILMTSLAFILGVMPLVISTGAGSGAQNAVGTGVMGGMVTATVLAIFFVPVFFVVVRRRFSRKNEDIEHSHTVDHH					binds
AcrB-V340A (natural protein) MPNFFIDRPIFAWVIAIIIMLAGGLAILKLPVAQYPTIAPPAVTISASYPGADAKTVQDTVTQVIEQNMNGIDNLMYMSSNSDSTGTVQITLTFESGTDADIAQVQVQNKLQLAMPLLPQEVQQQGVSVEKSSSSFLMVVGVINTDGTMTQEDISDYVAANMKDAISRTSGVGDVQLFGSQYAMRIWMNPNELNKFQLTPVDVITAIKAQNAQVAAGQLGGTPPVKGQQLNASIIAQTRLTSTEEFGKILLKVNQDGSRVLLRDVAKIELGGENYDIIAEFNGQPASGLGIKLATGANALDTAAAIRAELAKMEPFFPSGLKIVYPYDTTPFVKISIHEAVKTLVEAIILVFLVMYLFLQNFRATLIPTIAVPVVLLGTFAVLAAFGFSINTLTMFGMVLAIGLLVDDAIVVVENVERVMAEEGLPPKEATRKSMGQIQGALVGIAMVLSAVFVPMAFFGGSTGAIYRQFSITIVSAMALSVLVALILTPALCATMLKPIAKGDHGEGKKGFFGWFNRMFEKSTHHYTDSVGGILRSTGRYLVLYLIIVVGMAYLFVRLPSSFLPDEDQGVFMTMVQLPAGATQERTQKVLNEVTHYYLTKEKNNVESVFAVNGFGFAGRGQNTGIAFVSLKDWADRPGEENKVEAITMRATRAFSQIKDAMVFAFNLPAIVELGTATGFDFELIDQAGLGHEKLTQARNQLLAEAAKHPDMLTSVRPNGLEDTPQFKIDIDQEKAQALGVSINDINTTLGAAWGGSYVNDFIDRGRVKKVYVMSEAKYRMLPDDIGDWYVRAADGQMVPFSAFSSSRWEYGSPRLERYNGLPSMEILGQAAPGKSTGEAMELMEQLASKLPTGVGYDWTGMSYQERLSGNQAPSLYAISLIVVFLCLAALYESWSIPFSVMLVVPLGVIGALLAATFRGLTNDVYFQVGLLTTIGLSAKNAILIVEFAKDLMDKEGKGLIEATLDAVRMRLRPILMTSLAFILGVMPLVISTGAGSGAQNAVGTGVMGGMVTATVLAIFFVPVFFVVVRRRFSRKNEDIEHSHTVDHH					binds
AcrB-I27A (natural protein) MPNFFIDRPIFAWVIAIIIMLAGGLAALKLPVAQYPTIAPPAVTISASYPGADAKTVQDTVTQVIEQNMNGIDNLMYMSSNSDSTGTVQITLTFESGTDADIAQVQVQNKLQLAMPLLPQEVQQQGVSVEKSSSSFLMVVGVINTDGTMTQEDISDYVAANMKDAISRTSGVGDVQLFGSQYAMRIWMNPNELNKFQLTPVDVITAIKAQNAQVAAGQLGGTPPVKGQQLNASIIAQTRLTSTEEFGKILLKVNQDGSRVLLRDVAKIELGGENYDIIAEFNGQPASGLGIKLATGANALDTAAAIRAELAKMEPFFPSGLKIVYPYDTTPFVKISIHEVVKTLVEAIILVFLVMYLFLQNFRATLIPTIAVPVVLLGTFAVLAAFGFSINTLTMFGMVLAIGLLVDDAIVVVENVERVMAEEGLPPKEATRKSMGQIQGALVGIAMVLSAVFVPMAFFGGSTGAIYRQFSITIVSAMALSVLVALILTPALCATMLKPIAKGDHGEGKKGFFGWFNRMFEKSTHHYTDSVGGILRSTGRYLVLYLIIVVGMAYLFVRLPSSFLPDEDQGVFMTMVQLPAGATQERTQKVLNEVTHYYLTKEKNNVESVFAVNGFGFAGRGQNTGIAFVSLKDWADRPGEENKVEAITMRATRAFSQIKDAMVFAFNLPAIVELGTATGFDFELIDQAGLGHEKLTQARNQLLAEAAKHPDMLTSVRPNGLEDTPQFKIDIDQEKAQALGVSINDINTTLGAAWGGSYVNDFIDRGRVKKVYVMSEAKYRMLPDDIGDWYVRAADGQMVPFSAFSSSRWEYGSPRLERYNGLPSMEILGQAAPGKSTGEAMELMEQLASKLPTGVGYDWTGMSYQERLSGNQAPSLYAISLIVVFLCLAALYESWSIPFSVMLVVPLGVIGALLAATFRGLTNDVYFQVGLLTTIGLSAKNAILIVEFAKDLMDKEGKGLIEATLDAVRMRLRPILMTSLAFILGVMPLVISTGAGSGAQNAVGTGVMGGMVTATVLAIFFVPVFFVVVRRRFSRKNEDIEHSHTVDHH					binds
